One assay has as its system PDC. In words: Assay for PDC activity in tissues of treated DIO mice. The assay is classed as in vivo. The following applies: single dose 70 mg/kg IP, 10 h. The method, then: Six- to eight-week old C57BL/6J male mice were obtained from the local campus breeding colony at UT Southwestern Medical Center (Dallas, Tex.) and randomized into two groups: vehicle- and PS10-treated. Prior to the treatment, mice were fed with a 60% high-fat diet, which contained 32% saturated and 68% unsaturated fat (catalog number: D12492, Research Diet Inc. New Brunswick, N.J.), for eight to ten weeks to produce DIO animals. PS-10 was dissolved in 100% DMSO and then diluted to make a 10% DMSO aqueous solution containing 17.5% (w/v) (2-hydroxypropyl)-β-cyclodextrin for delivery. Animals were dosed at mid-day by intraperitoneal (IP) injections at 70 mg/kg using 1-ml syringe and 30-gauge needle. The length of the treatment is indicted in each experiment. At 10 h after the last injection, animals were euthanized using carbon dioxide asphyxiation followed by cervical dislocation and dissection. Blood was harvested by cardiac puncture and stored on ice. Acidified citrate dextrose (ACD) was used as an anticoagulant. Immediately after blood collection, heart, liver, kidneys and both hind-leg quadriceps muscles were removed and snap frozen in liquid nitrogen. Average ischemia time before organ harvest was about 2 to 3 min. Blood was centrifuged in an Eppendorf 5415R refrigerated microcentrifuge at 9,300×g for 5 min to isolate plasma, which was subsequently stored at −80° C.
Liquid nitrogen-stored tissue samples were removed and thawed on ice. Individual kidneys (200-250 mg), hearts (200-300 mg), muscle (200-300 mg) and liver (250-400 mg) tissues samples were manually homogenized in an ice-chilled glass homogenizer containing 1 ml of the homogenization buffer. The homogenization buffer contained 30 mM KPi, pH 7.5, 3 mM EDTA, 5 mM DTT, 1 mM benzamidine, 3% fetal bovine serum, 5% Triton X-100 and 1 mM leupeptin. Samples were transferred to ice-cold 10 ml polycarbonate tubes and spun in an ultracentrifuge at 25,000×g for 10 min to pellet cell and tissue debris. Supernatants were removed and stored on ice until diluted (1:3 for muscle, 1:5 for liver and 1:20 for kidneys and heart tissues) with a dilution buffer containing 50 mM HEPES, pH 7.5, 1.0 mM DTT, 0.1% Triton X-100, 5 mM DCA, 50 mM NaF, 3% fetal bovine serum and 1 mM leupeptin. The diluted samples (50 μl) were placed in each well of a 24-well plate containing 310 μl of the reaction mixture. A micro-bridge (Hampton Research) was pre-set into each well holding one piece of filter wick pre-soaked with 2 M NaOH. […] Assay plates were incubated further at 37° C. for 45 min. ^14CO2-trapped on 2 M NaOH soaked filter wicks were counted in a liquid scintillation counter. Total protein concentrations in the samples were determined by using BCA protein assay kit (Thermo fisher Scientific, Rockford, Ill.).

The test system of a further assay is ChREBP. As to the kind of experiment: Hepatic nuclear ChREBP protein levels in PDK inhibitor-treated DIO mice. The assay is classed as in vivo. The following applies: 40 mg/kg/day by mini-pumps for 5 days. The source says:
The antibody (from Santa Cruz) against the 95-kilodalton ChREBP is highly specific; no signal was detected in hepatic nuclear fractions from ChREBP KO mice. The reduced nuclear ChREBP protein levels correlate with curtailed liver-type pyruvate kinase (LPK) (FIG. 11B), the marker glycolytic enzyme tightly regulated by ChREBP^5. The increased PDC flux is indicated by diminished phosphorylation of the decarboxylase/dehydrogenase (E1)-α subunit of this enzyme complex (FIG. 11B); while the expression of this subunit is not affected (not shown). The glucose-sensitive transcription factor ChREBP discovered and cloned by the Uyeda group in 2001 (Yamashita et al., 2001) has emerged as a central regulator of lipogenesis in liver (Uyeda and Repa, 2006; Filhoulaud et al., 2013; Denechaud et al., 2008) and β-cells (Cha-Molstad et al., 2009; Kibbe et al., 2013) at the transcriptional level (Uyeda and Repa, 2006; Filhoulaud et al., 2013; Denechaud et al., 2008). […] Therefore, the inventors propose that increased glucose oxidation through PDC flux lowers hepatic glucose concentrations and attenuates nuclear ChREBP-mediated de novo lipogenesis in liver (FIG. 12A). […]

Assay [1] has as its target T1, PDK2 (Homo sapiens, UniProt Q15119). As to the kind of experiment: Assay for inhibition of PDK activity, PDK2. Type of assay: biochemical. Also noted: made in house. The method, then: (§1) Recombinant human PDK2 was expressed and purified as a N terminal His6-tagged SUMO fusion protein with a tobacco-etch-virus protease (TEV) cleavage site in front of the N-terminal PDK2 sequence (26), and was used directly for the activity assay and binding affinity analyses. […] The purified protein was concentrated to 35-40 mg/ml and stored at −80° C. in small aliquots. Recombinant human PDK1, PDK3 and PDK4 were expressed and purified as described previously (26).
(§2) The remaining steps were described previously (26). IC50 values were obtained by the curve fitting of inhibition isotherms using Prism 6 (GraphPad software, Inc.).

In another assay the target is PDK4 (Homo sapiens, UniProt Q16654). In words: Assay for inhibition of PDK activity, PDK4. The arrangement: made in house. The assay is classed as biochemical. As for the experimental part: as §1, §2
Assay [2] concerns the target T1, PDK2. As to the kind of experiment: Isothermal titration calorimetry (ITC), binding to PDK2. The conditions noted are these: ITC; read-out: Kd, nM for PDK2. Also noted: made in house. The method, then:
as §1
The PDK2 or Hsp90 N-terminal domain protein was dialyzed against one liter of the dialysis buffer containing 50 mM Tris-Cl, pH 7.5, 50 mM KCl, 1 mM MgCl2, and 0.5 mM β-mercaptoethanol. […] All of the ITC data were initially analyzed by the NITPIC program (32) to construct the baseline, followed by curve-fitting in Origin 7 to obtain binding parameters.

Where two headings read alike, the source gives them in different places.

PDK4, sequence (Q16654 whole entry): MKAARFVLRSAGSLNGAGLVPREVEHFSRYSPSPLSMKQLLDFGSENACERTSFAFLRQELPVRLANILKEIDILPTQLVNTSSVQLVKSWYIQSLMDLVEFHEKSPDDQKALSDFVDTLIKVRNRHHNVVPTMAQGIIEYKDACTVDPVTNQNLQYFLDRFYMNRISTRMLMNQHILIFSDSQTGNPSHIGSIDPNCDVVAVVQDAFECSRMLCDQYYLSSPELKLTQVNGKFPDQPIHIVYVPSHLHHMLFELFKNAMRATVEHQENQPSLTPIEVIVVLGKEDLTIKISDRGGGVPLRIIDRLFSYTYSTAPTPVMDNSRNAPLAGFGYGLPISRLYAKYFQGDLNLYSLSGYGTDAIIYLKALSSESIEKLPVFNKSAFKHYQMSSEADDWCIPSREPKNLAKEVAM

For `O=S(=O)(c1ccc(O)cc1O)N1Cc2cc(O)cc(O)c2C1` [PS10, 2-((2,4-dihydroxyphenyl)sulfonyl)isoindoline-4,6-diol], in the assay with PDC, the “PDC activity in heart, fold over vehicle-treated” value worked out at 11 fold; the “PDC activity in kidneys, fold enhancement over vehicle-treated” value turned out to be 1.4 fold; the “PDC activity in liver, fold over vehicle-treated” value was determined as 23 fold; the “PDC activity in quadriceps muscle vs vehicle-treated” value is recorded as “no difference”. The “ChREBP protein levels in hepatic nuclear fractions” value in the assay with ChREBP is “drastically decreased”. Besides, the IC50 on PDK2 [1] (Table 1, inhibitor 31.6 nM to 1 mM, read-out: IC50, μM for PDK2) stood at 0.8 µM. In addition, on PDK2 [1] (absence of E2/E3BP core (−), read-out: IC50 for PDK2), the concentration for half-maximal inhibition (IC50) amounted to 0.8 µM. In addition, the IC50 on PDK4 (Table 1, inhibitor 31.6 nM to 1 mM, read-out: IC50, μM for PDK4) was determined as 0.76 µM. The half-inhibitory concentration (IC50) on PDK4 (absence of E2/E3BP core (−), read-out: IC50 for PDK4) worked out at 0.77 µM. Also, the Kd at PDK2 [2] was 239 nM.

The values above are taken from patent US10167258B2, “Inhibitors of mitochondrial pyruvate dehydrogenase kinase isoforms 1-4 and uses thereof” (The Board of Regents of the University of Texas System, priority 2013, dated 2019).
